# Measurements published in ChEMBL document CHEMBL1201862, “PubChem BioAssay data set” (2004).
#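 These data come from cells grown in 96-well plates and exposed to compound for 48 hours at five concentrations. GI50 marks 50% less growth.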 Calls of active or inactive are those of the source. No stated cut-off is given here; in the data, active = GI50 up to about 1.1 µM and inactive = higher.
# Legend:
# Assay in all cases: NCI tumour cell line growth inhibition, 48 h
# CCRF-CEM = tested on: CCRF-CEM
# HCC 2998 = tested on: HCC 2998
# HCT-15 = tested on: HCT-15
# MDA-N = tested on: MDA-N
# NCI-H460 = tested on: NCI-H460
# OVCAR-4 = tested on: OVCAR-4
# SF-268 = tested on: SF-268
# SF-295 = tested on: SF-295
# SK-MEL-28 = tested on: SK-MEL-28
# T47D = tested on: T47D
# TK-10 = tested on: TK-10
# U-251 = tested on: U-251
# UACC-257 = tested on: UACC-257
# UACC-62 = tested on: UACC-62
# HT-29 = tested on: HT-29
# K562 = tested on: K562
# LOX IMVI = tested on: LOX IMVI
# MOLT-4 = tested on: MOLT-4
SMILES,GI50 (CCRF-CEM),GI50 (HCC 2998),GI50 (HCT-15),GI50 (MDA-N),GI50 (NCI-H460),GI50 (OVCAR-4),GI50 (SF-268),GI50 (SF-295),GI50 (SK-MEL-28),GI50 (T47D),GI50 (TK-10),GI50 (U-251),GI50 (UACC-257),GI50 (UACC-62),GI50 (HT-29),GI50 (K562),GI50 (LOX IMVI),GI50 (MOLT-4)
C=CCOC(=O)CCCCCCCCCCCCCCCOC(=O)C1=C(CCC[C@@H](C)O[Si](C)(C)C(C)(C)C)NC(=O)N2[C@H](CC3(CC/C=C\[C@H](CC)O[Si](C(C)C)(C(C)C)C(C)C)OCCO3)CC[C@H]12,> 100 µM (inactive),> 100 µM (inactive),> 100 µM,> 100 µM (inactive),> 100 µM (inactive),> 100 µM (inactive),> 100 µM (inactive),> 100 µM (inactive),> 100 µM (inactive),> 100 µM (inactive),> 100 µM (inactive),> 100 µM (inactive),> 100 µM (inactive),> 100 µM (inactive),–,–,–,–
O=Cc1cc(O)c(O)c(/C=N/n2c3ccccc3c3ccccc32)c1,1.58 µM (inactive),11.7 µM (inactive),2.18 µM,–,6.03 µM (inactive),2.17 µM (inactive),3.98 µM (inactive),8.69 µM (inactive),12.9 µM (inactive),5.64 µM (inactive),13.4 µM (inactive),6.14 µM (inactive),11.7 µM (inactive),7.83 µM (inactive),18.7 µM (inactive),4.11 µM (inactive),8.49 µM (inactive),2.54 µM (inactive)
CC1=C(N2CC2)C(=O)C(CO)=C(N2CC2)C1=O,< 0.01 µM (active),0.0378 µM (active),0.0151 µM,–,< 0.01 µM (active),0.103 µM (active),0.0129 µM (active),0.013 µM (active),0.0711 µM (active),0.0114 µM (active),0.0258 µM (active),0.0141 µM (active),0.0923 µM (active),0.022 µM (active),0.0132 µM (active),0.0186 µM (active),< 0.01 µM (active),0.0129 µM (active)
NC1=NC(c2ccc(Cl)cc2)N(c2ccc(S(N)(=O)=O)cc2)C(N)=N1 (centres undefined),> 100 µM (inactive),–,> 100 µM,> 100 µM (inactive),> 100 µM (inactive),> 100 µM (inactive),> 100 µM (inactive),> 100 µM (inactive),> 100 µM (inactive),> 100 µM (inactive),> 100 µM (inactive),> 100 µM (inactive),> 100 µM (inactive),> 100 µM (inactive),> 100 µM (inactive),> 100 µM (inactive),> 100 µM (inactive),> 100 µM (inactive)
Nc1nc(NNc2ccc(Cl)c(Cl)c2)cc(=O)[nH]1,36.4 µM (inactive),19.8 µM (inactive),19.7 µM,35.5 µM (inactive),41.6 µM (inactive),52 µM (inactive),19.7 µM (inactive),54.1 µM (inactive),52.1 µM (inactive),–,> 100 µM (inactive),24.2 µM (inactive),43.2 µM (inactive),–,34.4 µM (inactive),18.9 µM (inactive),17.3 µM (inactive),19.4 µM (inactive)
O=C(c1ccccc1)c1c2ccccn2c2cccc[n+]12,> 100 µM (inactive),> 100 µM (inactive),> 100 µM,–,> 100 µM (inactive),> 100 µM (inactive),> 100 µM (inactive),> 100 µM (inactive),> 100 µM (inactive),> 100 µM (inactive),> 100 µM (inactive),> 100 µM (inactive),> 100 µM (inactive),> 100 µM (inactive),> 100 µM (inactive),> 100 µM (inactive),> 100 µM (inactive),> 100 µM (inactive)
O=c1[nH]c(=O)n(COCc2ccccc2)cc1Nc1ccc(Br)cc1,> 100 µM (inactive),> 100 µM (inactive),> 100 µM,> 100 µM (inactive),> 100 µM (inactive),> 100 µM (inactive),28.5 µM (inactive),44.5 µM (inactive),> 100 µM (inactive),–,–,> 100 µM (inactive),> 100 µM (inactive),> 100 µM (inactive),> 100 µM (inactive),> 100 µM (inactive),> 100 µM (inactive),> 100 µM (inactive)
CCOC(=O)c1cc(Sc2ccc(N)c(C(=O)OCC)c2)ccc1N,28 µM (inactive),–,> 100 µM,5.43 µM (inactive),78.2 µM (inactive),17.8 µM (inactive),16.1 µM (inactive),3.3 µM (inactive),> 100 µM (inactive),> 100 µM (inactive),–,27.9 µM (inactive),> 100 µM (inactive),9.42 µM (inactive),28.8 µM (inactive),7.98 µM (inactive),–,8.24 µM (inactive)
